This passage reports viability, EC50 and IC50 results from ChEMBL document CHEMBL3751665, “Identification of a novel NAMPT inhibitor by combinatorial click chemistry and chemical refinement” (Medchemcomm, 2015).

The test system of experiment [1] is SH-SY5Y. Briefly: Cytotoxicity against human SH-SY5Y cells assessed as cell viability at 10 uM after 48 hrs by MTT assay relative to control. The class given is functional. The settings on record: read-out: Activity. For orientation: Formazan colour is commonly taken as a measure of viable cells.
Experiment [2] deals with SH-SY5Y. Description: Cytotoxicity against human SH-SY5Y cells assessed as cell viability at 1 uM after 48 hrs by MTT assay relative to control. The class given is functional. The settings on record: read-out: Activity.
The subject of experiment [3] is SH-SY5Y. Description: Cytotoxicity against human SH-SY5Y cells assessed as reduction in cell viability after 48 hrs by MTT assay. It counts as functional, cell-based.
For experiment [4], the target named is Nicotinamide phosphoribosyltransferase (Mus musculus, UniProt Q99KQ4). Description: Inhibition of recombinant mouse NAMPT expressed in bacteria assessed as reduction in NADH formation using [14C]NAM as substrate measured for 1 hr by coupled enzymatic assay.
In experiment [5] the target is Nicotinamide phosphoribosyltransferase (Homo sapiens, UniProt P43490). Description: Inhibition of NAMPT in human SH-SY5Y cells assessed as NAD depletion incubated for 16 hrs. The class given is cell-based.
The test system of experiment [6] is SH-SY5Y. Description: Cytotoxicity against human SH-SY5Y cells assessed as cell viability at 100 nM after 48 hrs by MTT assay relative to control. The class given is functional. The settings on record: read-out: Activity.

pEC50, pIC50: −log10 of the molar value.

Chain of Nicotinamide phosphoribosyltransferase (Mus musculus, UniProt Q99KQ4) (Q99KQ4 whole entry): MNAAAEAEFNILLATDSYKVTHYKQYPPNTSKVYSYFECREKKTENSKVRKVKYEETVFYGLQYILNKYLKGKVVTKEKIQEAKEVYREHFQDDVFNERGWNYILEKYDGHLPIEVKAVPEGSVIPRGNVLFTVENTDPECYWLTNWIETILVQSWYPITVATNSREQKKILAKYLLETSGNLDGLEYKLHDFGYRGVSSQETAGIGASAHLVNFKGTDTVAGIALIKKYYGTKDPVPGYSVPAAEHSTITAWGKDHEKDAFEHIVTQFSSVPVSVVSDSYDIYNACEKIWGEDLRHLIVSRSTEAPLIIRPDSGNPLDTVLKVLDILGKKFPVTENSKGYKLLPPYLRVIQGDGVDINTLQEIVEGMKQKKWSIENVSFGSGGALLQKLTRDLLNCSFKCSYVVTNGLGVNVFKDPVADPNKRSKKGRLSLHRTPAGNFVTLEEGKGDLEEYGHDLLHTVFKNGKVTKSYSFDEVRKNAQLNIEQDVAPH
Chain of Nicotinamide phosphoribosyltransferase (Homo sapiens, UniProt P43490) (P43490 whole entry): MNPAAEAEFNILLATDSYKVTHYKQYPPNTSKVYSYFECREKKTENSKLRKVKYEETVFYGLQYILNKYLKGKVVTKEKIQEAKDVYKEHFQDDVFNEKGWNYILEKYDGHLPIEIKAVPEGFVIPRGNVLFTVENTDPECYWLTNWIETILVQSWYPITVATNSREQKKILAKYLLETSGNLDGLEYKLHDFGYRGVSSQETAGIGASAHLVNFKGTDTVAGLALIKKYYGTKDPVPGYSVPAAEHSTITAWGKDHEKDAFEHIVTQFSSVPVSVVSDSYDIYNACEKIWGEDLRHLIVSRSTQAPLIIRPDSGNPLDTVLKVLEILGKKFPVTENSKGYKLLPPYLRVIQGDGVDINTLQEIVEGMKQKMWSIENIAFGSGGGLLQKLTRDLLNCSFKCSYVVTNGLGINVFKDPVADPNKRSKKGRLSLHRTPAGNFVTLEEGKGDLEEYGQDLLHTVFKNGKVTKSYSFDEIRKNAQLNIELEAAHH

`O=C(CCCCCCCCc1cn(-c2cnc3ccccc3c2)nn1)Nc1ccncc1`: the viability at 10 µM in experiment [1] is 53%. Further, in experiment [2], the viability at 1 µM was determined as 104%.

As for `O=C(/C=C/c1cccnc1)NCCCCC1CCN(C(=O)c2ccccc2)CC1` [DAPORINAD], the negative-log EC50 (pEC50) in experiment [3] is 8.49. For the same compound, the pIC50 in experiment [4] is 7.21.

With `O=C(CCCCCCCc1cn(-c2ccccc2-c2ccccc2)nn1)Nc1ccncc1`, the viability at 10 µM in experiment [1] turned out to be 32%. For the same compound, in experiment [2], the viability at 1 µM was determined as 82%.

For the compound `O=C(CCCCCCCc1cn(-c2ccccc2Cc2ccccc2)nn1)NCc1cccnc1`, the viability at 10 µM in experiment [1] was 94%.

Regarding `O=C(CCCCCc1cn(-c2ccccc2-c2ccccc2)nn1)NCCc1cccnc1`, the pEC50 in experiment [3] was 6.17. Moreover, the viability at 10 µM in experiment [1] is 25%. Also, the pIC50 is 8.12 in experiment [5] and 6.77 in experiment [4]. The viability at 1 µM in experiment [2] turned out to be 29.2%.

For `O=C(/C=C/c1cccnc1)NCCCCCc1cn(-c2ccccc2-c2ccccc2)nn1`, in experiment [3], the pEC50 was 7.70. Also, the viability at 0.1 µM in experiment [6] worked out at 49%. For the same compound, the pIC50 was 10.29 in experiment [5] and 6.94 in experiment [4]. Also, the viability at 1 µM in experiment [2] was 32%.

Turning to `O=C(Cc1cccnc1)NCCCCCc1cn(-c2ccccc2-c2ccccc2)nn1`, the viability at 0.1 µM in experiment [6] was 106%. Further, the viability at 1 µM in experiment [2] was 99%.

`O=C(CCCCCCc1cn(-c2ccccc2-c2ccccc2)nn1)NCc1cccnc1`: the viability at 10 µM in experiment [1] was determined as 47%. In addition, the viability at 1 µM in experiment [2] is 98%.

In the case of `O=C(CCCCCc1cn(Cc2ccc(-c3ccccc3)cc2)nn1)NCCc1ccncc1`, the viability at 10 µM in experiment [1] is 100%.

For the compound `O=C(CCCCCCCc1cn(-c2ccc(CN3CCOCC3)cc2)nn1)Nc1ccncc1`, the viability at 10 µM in experiment [1] was found to be 125%.

`O=C(CCCCCCCCc1cn(-c2ccc(N3CCOCC3)cc2)nn1)Nc1ccncc1`: in experiment [1], the viability at 10 µM was determined as 28%. In experiment [2], the viability at 1 µM worked out at 93%.

Turning to `O=C(CCCCCCCCc1cn(-c2ccc(N3CCOCC3)cc2)nn1)NCc1cccnc1`, the viability at 10 µM in experiment [1] came to 74%. Also, the viability at 1 µM in experiment [2] stood at 100%.

Take `CNCC(=O)N(CCn1cc(CCCCCCCC(=O)NCCc2cccnc2)nn1)Cc1ccccc1`: the viability at 10 µM in experiment [1] is 109%.

Take `O=C(CCCCCCCc1cn(-c2ccccc2-c2ccccc2)nn1)Nc1cccnc1`: in experiment [1], the viability at 10 µM was 111%.

In the case of `O=C(CCCCCCCc1cn(-c2ccccc2CO)nn1)NCc1cccnc1`, the viability at 10 µM in experiment [1] amounted to 96%.

Turning to `O=C(CCCCCCCc1cn(-c2ccccc2Cc2ccccc2)nn1)NCCc1cccnc1`, the viability at 10 µM in experiment [1] was found to be 101%.

Consider `O=C(CCCCCCCc1cn(-c2ccccc2Cc2ccccc2)nn1)NCCc1ccncc1`, for which the viability at 10 µM in experiment [1] was found to be 99%.

`O=C(CCCCCCCc1cn(-c2ccc(N3CCOCC3)cc2)nn1)Nc1ccncc1`: the viability at 10 µM in experiment [1] worked out at 103%.

As for `O=C(CCCCCc1cn(-c2ccccc2-c2ccccc2)nn1)NCc1cccnc1`, the negative-log EC50 (pEC50) in experiment [3] was 6.34. Besides, the viability at 10 µM in experiment [1] stood at 12.5%. Moreover, the values for the negative-log IC50 (pIC50) in experiment [5] and in experiment [4] were 8.96 and 6.57, respectively. For the same compound, the viability at 1 µM in experiment [2] amounted to 13.4%.

Turning to `O=C(CCCCCCCCc1cn(-c2cnc3ccccc3c2)nn1)NCc1cccnc1`, in experiment [1], the viability at 10 µM came to 29%. Also, in experiment [2], the viability at 1 µM was found to be 102%.

Turning to `O=C(CCc1cccnc1)NCCCCCc1cn(-c2ccccc2-c2ccccc2)nn1`, the viability at 0.1 µM in experiment [6] was 112%. For the same compound, in experiment [2], the viability at 1 µM was 54%.

One may read the pEC50 as the negative decadic logarithm of the EC50, by convention in mol/L. As usually defined, the pIC50 is the IC50 on a negative log10 scale, so that one unit is a factor of ten.
